Experimental data reported in patent publication US20240158446A1, “CYCLIC COMPOUND HAVING SELECTIVE INHIBITORY ACTION ON KRAS OVER HRAS AND NRAS” (CHUGAI SEIYAKU KABUSHIKI KAISHA, priority 2021, published 2024).
Like-named read-outs stand apart in the source and are kept apart here.

Legend:
[1] = system: human lung cancer strain NCI-H441;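 note: cell proliferation inhibition after four days measured by CellTiter-Glo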
[2] = molecular target: GDP-bound NRAS wild-type protein (Homo sapiens, UniProt P01111); experiment: Binding to NRAS by surface plasmon resonance (SPR), Single Cycle Kinetics; settings: for NRAS/KRAS (ratio of KD value with respect to GDP-bound NRAS wild-type protein to KD value with respect to KRAS): SPR KD ratio NRAS/KRAS, class symbols; for NRAS/KRAS (ratio of KD value for NRAS to KD value for KRAS): SPR, GDP-bound NRAS wild-type protein vs GDP-bound KRAS wild-type protein
[3] = molecular target: GDP-bound HRAS wild-type protein (Homo sapiens, UniProt P01112); experiment: Binding to HRAS by surface plasmon resonance (SPR), Single Cycle Kinetics; settings: for HRAS/KRAS (ratio of KD value with respect to GDP-bound HRAS wild-type protein to KD value with respect to KRAS): SPR KD ratio HRAS/KRAS, class symbols; for HRAS/KRAS (ratio of KD value for HRAS to KD value for KRAS): SPR, GDP-bound HRAS wild-type protein vs GDP-bound KRAS wild-type protein
[4] = molecular target: GDP-bound KRAS wild-type protein (Homo sapiens, UniProt P01116); experiment: Binding to KRAS by surface plasmon resonance (SPR), Single Cycle Kinetics; settings: GDP-bound KRAS wild-type protein, read-out: KRAS KD
[5] = SPR Single Cycle Kinetics, 1:1 binding model
[6] = SPR, Single Cycle Kinetics, 1:1 binding model

Chain of GDP-bound HRAS wild-type protein (P01112 whole entry): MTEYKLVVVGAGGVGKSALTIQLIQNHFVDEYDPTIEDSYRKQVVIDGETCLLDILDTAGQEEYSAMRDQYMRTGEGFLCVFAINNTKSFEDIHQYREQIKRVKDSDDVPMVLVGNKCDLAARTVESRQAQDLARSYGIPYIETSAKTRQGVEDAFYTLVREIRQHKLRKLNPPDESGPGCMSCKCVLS
Chain of GDP-bound NRAS wild-type protein (P01111 whole entry): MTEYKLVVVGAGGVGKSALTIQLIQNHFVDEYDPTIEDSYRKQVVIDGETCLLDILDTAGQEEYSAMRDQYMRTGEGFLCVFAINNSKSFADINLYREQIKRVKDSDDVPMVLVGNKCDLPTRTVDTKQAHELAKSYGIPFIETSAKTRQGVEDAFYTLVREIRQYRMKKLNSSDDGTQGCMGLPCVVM
Chain of GDP-bound KRAS wild-type protein (P01116 whole entry): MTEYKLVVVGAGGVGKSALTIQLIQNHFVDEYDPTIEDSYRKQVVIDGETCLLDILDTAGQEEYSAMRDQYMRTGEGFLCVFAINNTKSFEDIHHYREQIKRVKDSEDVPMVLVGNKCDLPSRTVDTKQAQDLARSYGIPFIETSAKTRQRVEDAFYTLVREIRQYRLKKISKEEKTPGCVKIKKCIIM

| SMILES | IC50 [1] [nM] | NRAS/KRAS (ratio of KD value with respect to GDP-bound NRAS wild-type protein to KD value with respect to KRAS) [2] | HRAS/KRAS (ratio of KD value with respect to GDP-bound HRAS wild-type protein to KD value with respect to KRAS) [3] | Kd [4, 5] [nM] | NRAS/KRAS (ratio of KD value for NRAS to KD value for KRAS) [2] | HRAS/KRAS (ratio of KD value for HRAS to KD value for KRAS) [3] | Kd ([4]; SPR, Single Cycle Kinetics) [nM] | NRAS/KRAS (ratio of KD value for NRAS to KD value for KRAS) ([2]; KD ratio class) | HRAS/KRAS (ratio of KD value for HRAS to KD value for KRAS) ([3]; KD ratio class) | Kd [4, 6] [nM] |
| --- | --- | --- | --- | --- | --- | --- | --- | --- | --- | --- |
| CC[C@H](C)[C@@H]1NC(=O)[C@H](COC)N(C)C(=O)C[C@@H](C(=O)N(C)C)N(C)C(=O)[C@H](C2CCCCC2)N(C)C(=O)C2(CC(C)(C)C2)NC(=O)[C@@H]2C[C@@H](OC(C)C)CN2C(=O)[C@H](CCc2ccc(Cl)c(Cl)c2)NC(=O)CN(C)C(=O)[C@H](Cc2ccc(C(F)(F)F)cc2)N2CC/C=C\C[C@@H](C2=O)N(C)C(=O)CN(C)C1=O [PP2662] | 13.1 | AA (a compound having 20 or more is denoted as AA) | A (a compound having 10 or more and less than 20 is denoted as A) | 0.29 | – | – | – | – | – | – |
| CCCOC[C@H]1C(=O)N[C@@H]([C@@H](C)CC)C(=O)N(C)CC(=O)N(C)[C@H]2C/C=C\CCN(C2=O)[C@@H](Cc2ccc(C)cc2)C(=O)N(C)CC(=O)N[C@@H](CCc2ccc(C(F)(F)F)c(Cl)c2)C(=O)N2C[C@H](OCC)C[C@H]2C(=O)NC2(CC(C)(C)C2)C(=O)N(C)[C@@H](C2CCCC2)C(=O)N(C)[C@H](C(=O)N(C)C)CC(=O)N1C [PP2402] | 10.6 | – | – | – | A (a compound having 10 or more and less than 20 is denoted as A) | A (a compound having 10 or more and less than 20 is denoted as A) | 0.092 | – | – | – |
| CCC[C@H]1C(=O)N[C@@H]([C@@H](C)CC)C(=O)N(C)CC(=O)N(C)[C@H]2C/C=C\CCN(C2=O)[C@@H](Cc2ccc(C)cc2)C(=O)N(C)CC(=O)N[C@@H](CCc2ccc(Cl)c(Cl)c2)C(=O)N2C[C@H](OCC)C[C@H]2C(=O)NC2(CC(C)(C)C2)C(=O)N(C)[C@@H](CC2CCC2)C(=O)N(C)[C@H](C(=O)N(C)C)CC(=O)N1C [PP2755] | 35.7 | A (a compound having 10 or more and less than 20 is denoted as A) | A (a compound having 10 or more and less than 20 is denoted as A) | 0.56 | – | – | – | – | – | – |
| CCO[C@@H]1C[C@H]2C(=O)NC3(CCC3)C(=O)N(C)[C@@H](C(CC)CC)C(=O)N(C)[C@H](C(=O)N(C)C)CC(=O)N(C)[C@@H](CC)C(=O)N[C@@H]([C@@H](C)CC)C(=O)N(C)CC(=O)N(C)[C@H]3C/C=C\CCN(C3=O)[C@@H](Cc3ccc(C(F)(F)F)cc3)C(=O)N(C)CC(=O)N[C@@H](CCc3ccc(C(F)(F)F)c(OC)c3)C(=O)N2C1 [PP1207] | 29.9 | – | – | – | – | – | – | AA (a compound having 20 or more is denoted as AA) | A (a compound having 10 or more and less than 20 is denoted as A) | 0.21 |
| CCCOC[C@H]1C(=O)N[C@@H]([C@@H](C)CC)C(=O)N(C)CC(=O)N(C)[C@H]2C/C=C\CCN(C2=O)[C@@H](CC2CCC(F)(F)CC2)C(=O)N(C)CC(=O)N[C@@H](CCc2cc(F)c(C(F)(F)F)c(F)c2)C(=O)N2C[C@H](OCC)C[C@H]2C(=O)NC2(CC(C)(C)C2)C(=O)N(C)[C@@H](C(CC)CC)C(=O)N(C)[C@H](C(=O)N(C)C)CC(=O)N1C [PP2472] | 42.3 | – | – | – | A (a compound having 10 or more and less than 20 is denoted as A) | A (a compound having 10 or more and less than 20 is denoted as A) | 0.58 | – | – | – |
| CCOC[C@H]1C(=O)N[C@@H]([C@@H](C)CC)C(=O)N(C)CC(=O)N(C)[C@H]2C/C=C\CCN(C2=O)[C@@H](CC2CCC(F)(F)CC2)C(=O)N(C)CC(=O)N[C@@H](CCc2ccc(C(F)(F)F)c(OC)c2)C(=O)N2C[C@@H](C)C[C@H]2C(=O)NC2(CC(C)(C)C2)C(=O)N(C)[C@@H](C(CC)CC)C(=O)N(C)[C@H](C(=O)N(C)C)CC(=O)N1C [PP2458] | 80.7 | – | – | – | A (a compound having 10 or more and less than 20 is denoted as A) | A (a compound having 10 or more and less than 20 is denoted as A) | 1.3 | – | – | – |
| CCO[C@@H]1C[C@H]2C(=O)NC3(CCCC3)C(=O)N(C)[C@@H](C3CCCC3)C(=O)N(C)[C@H](C(=O)N3CCOCC3)CC(=O)N(C)[C@@H](COC)C(=O)N[C@@H]([C@@H](C)CC)C(=O)N3CC[C@H]3C(=O)N(C)[C@H]3CCCCCN(C3=O)[C@@H](Cc3ccc(C(F)(F)F)cc3)C(=O)N(C)CC(=O)N[C@@H](CCc3cc(F)c(C(F)(F)F)c(F)c3)C(=O)N2C1 [PP0867] | 206 | – | – | – | B (a compound having 3 or more and less than 10 is denoted as B) | B (a compound having 3 or more and less than 10 is denoted as B) | 1.2 | – | – | – |
| CCO[C@@H]1C[C@H]2C(=O)NC3(CCC3)C(=O)N(C)[C@@H](C(CC)CC)C(=O)N(C)[C@H](C(=O)N(C)C)CC(=O)N(C)[C@@H](CC(C)C)C(=O)N[C@@H]([C@@H](C)CC)C(=O)N(C)CC(=O)N(C)[C@H]3C/C=C\CCN(C3=O)[C@@H](Cc3ccc(C(F)(F)F)cc3)C(=O)N(C)CC(=O)N[C@@H](CCc3ccc4sccc4c3)C(=O)N2C1 [PP1225] | 92.5 | – | – | – | – | – | – | AA (a compound having 20 or more is denoted as AA) | A (a compound having 10 or more and less than 20 is denoted as A) | 1.1 |
| CCCOC[C@H]1C(=O)N[C@@H]([C@@H](C)CC)C(=O)N2CCC[C@H]2C(=O)N(C)[C@H]2C/C=C\CCN(C2=O)[C@@H](Cc2ccc(C)cc2)C(=O)N(C)CC(=O)N[C@@H](CCc2ccc(C(F)(F)F)c(OC)c2)C(=O)N2C[C@@H](C)C[C@H]2C(=O)N(C)C2(CCC2)C(=O)N(C)[C@@H](C2CCCC2)C(=O)N(C)[C@H](C(=O)N(C)C)CC(=O)N1C [PP2369] | 4.5 | – | – | – | A (a compound having 10 or more and less than 20 is denoted as A) | B (a compound having 3 or more and less than 10 is denoted as B) | 0.062 | – | – | – |
| CCO[C@@H]1C[C@H]2C(=O)NC3(CCC3)C(=O)N(C)[C@@H](C(CC)CC)C(=O)N(C)[C@H](C(=O)N(C)C)CC(=O)N(C)[C@@H](CC3CCCC3)C(=O)N[C@@H]([C@@H](C)CC)C(=O)N(C)CC(=O)N(C)[C@H]3C/C=C\CCN(C3=O)[C@@H](Cc3ccc(C(F)(F)F)cc3)C(=O)N(C)CC(=O)N[C@@H](CCc3ccc(C(F)(F)F)c(OC)c3)C(=O)N2C1 [PP1212] | 35.6 | – | – | – | – | – | – | AA (a compound having 20 or more is denoted as AA) | A (a compound having 10 or more and less than 20 is denoted as A) | 0.28 |
| CCO[C@@H]1C[C@H]2C(=O)NC3(CC(C)(C)C3)C(=O)N(C)[C@@H](C(CC)CC)C(=O)N(C)[C@H](C(=O)N(C)C)CC(=O)N(C)[C@@H](COC)C(=O)N[C@@H]([C@@H](C)CC)C(=O)N(C)CC(=O)N(C)[C@H]3C/C=C\CCN(C3=O)[C@@H](CC3CCC(F)(F)CC3)C(=O)N(C)CC(=O)N[C@@H](CCc3ccc(C(F)(F)F)c(OC)c3)C(=O)N2C1 [PP2438] | 41.4 | – | – | – | A (a compound having 10 or more and less than 20 is denoted as A) | A (a compound having 10 or more and less than 20 is denoted as A) | 0.64 | – | – | – |
| CCOC[C@H]1C(=O)N[C@@H]([C@@H](C)CC)C(=O)N(C)CC(=O)N(C)[C@H]2C/C=C\CCN(C2=O)[C@@H](Cc2ccc(C)cc2)C(=O)N(C)CC(=O)N[C@@H](CCc2cc(F)c(C(F)(F)F)c(F)c2)C(=O)N2C[C@@H](C)C[C@H]2C(=O)NC2(CC(C)(C)C2)C(=O)N(C)[C@@H](C2CCCC2)C(=O)N(C)[C@H](C(=O)N(C)C)CC(=O)N1C [PP2439] | 6.6 | – | – | – | A (a compound having 10 or more and less than 20 is denoted as A) | A (a compound having 10 or more and less than 20 is denoted as A) | 0.12 | – | – | – |
| CCC[C@H]1C(=O)N[C@@H]([C@@H](C)CC)C(=O)N2C[C@@H](OC)C[C@H]2C(=O)N(C)[C@H]2C/C=C\CCN(C2=O)[C@@H](Cc2ccc(C)cc2)C(=O)N(C)CC(=O)N[C@@H](CCc2cc(F)c(C(F)(F)F)c(F)c2)C(=O)N2C[C@H](OCC)C[C@H]2C(=O)NC2(CC(C)(C)C2)C(=O)N(C)[C@@H](C2CCCC2)C(=O)N(C)[C@H](C(=O)N(C)C)CC(=O)N1C [PP2556] | 9.4 | A (a compound having 10 or more and less than 20 is denoted as A) | B (a compound having 3 or more and less than 10 is denoted as B) | 0.21 | – | – | – | – | – | – |
